Laboratory results taken from patent US20230357219A1, “PREPARATION OF BIARYL RING-LINKED AROMATIC HETEROCYCLIC DERIVATIVE AS IMMUNOMODULATOR AND USE THEREOF” (SHANGHAI LONGWOOD BIOPHARMACEUTICALS CO., LTD., priority 2020, published 2023).
pIC50: −log10 of the molar value.

Target: PD-1/PD-L1 (Homo sapiens (Human), UniProt Q9NZQ7)
Assay: PD-1/PD-L1 Homogeneous Time-Resolved Fluorescence (HTRF) Binding Assay
Conditions: ~3 nM of PD1, 10 nM of PD-L1; 25° C., PBS buffer (pH 7.4)
Protocol: Assays were performed in standard black 384-well polystyrene plates and a final volume was 20 µL. The inhibitor was first serially diluted with DMSO and added to the wells of the plate, then other reaction components were added. The final concentration of DMSO in the assay was 1%. Assays were performed at 25° C. in PBS buffer (pH 7.4) containing 0.05% Tween-20 and 0.1% BSA. Recombinant human PD-L1 protein (19-238) with a His-tagged at the C-terminus was purchased from AcroBiosystems (PD1-H5229). Recombinant human PD-1 protein (25-167) with an Fc tag at the C-terminus was also purchased from AcroBiosystems (PD1-H5257). The PD-L1 and PD-1 proteins were diluted in assay buffer and then 0.1 µl of the solution was extracted and added to the wells of the plate. Plates were centrifuged and proteins and inhibitors were preincubated for 40 minutes. After incubation, 0.1 µl of HTRF detection buffer containing europium […] labeled anti-human IgG (PerkinElmer-AD0212), Fc-specific and anti-His SureLight®-Allophycocyanin (APC, PerkinElmer-AD0059H) conjugated antibodies was added. After centrifugation, the plates were incubated at 25° C. for 60 minutes. Data was read in a PHERAstar FS plate reader (665 nm/620 nm ratio). Final concentrations in the assay were ~3 nM of PD1, 10 nM of PD-L1, 1 nM of europium anti-human IgG, and 20 nM of anti-His-allophycocyanin. Activity data were fitted using GraphPad Prism 5.0 software to derive IC50 values for inhibitors. The IC50 values of the compounds exemplified in the examples are expressed in the following manner: IC50: + = ≤100 nM; ++ =100 nM-1000 nM; +++ = >1000 nM. The data of the example compounds obtained by PD-1/PD-L1 homogeneous time-resolved fluorescence (HTRF) binding assay described in Example A were provided in Table 1.

Sequence of PD-1/PD-L1 (Q9NZQ7 19-238): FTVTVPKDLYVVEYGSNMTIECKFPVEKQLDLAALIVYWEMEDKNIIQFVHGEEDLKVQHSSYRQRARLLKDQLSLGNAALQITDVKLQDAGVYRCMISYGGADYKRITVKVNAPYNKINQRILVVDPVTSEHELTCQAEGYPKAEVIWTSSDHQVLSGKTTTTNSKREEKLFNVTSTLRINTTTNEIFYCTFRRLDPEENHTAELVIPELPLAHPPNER

Question: With `COc1nc(O[C@@H]2CCc3c(-c4cccc(Nc5nccc6cc(CN7CC[C@@H](C(=O)O)C7)cnc56)c4C)cccc32)cnc1CN1CC[C@@H](O)C1` [Compound 4] as the compound, how does the pIC50 read?
Answer: ≥ 7.00

Question: With `COc1nc(O[C@@H]2CCc3c(-c4cccc(Nc5nccc6cc(CN7CC[C@@H](C(=O)O)C7)cnc56)c4C)cccc32)ccc1CN1CC[C@@H](O)C1` [Compound 7] as the compound, how does the pIC50 read?
Answer: ≥ 7.00

Question: With `COc1nc(O[C@@H]2CCc3c(-c4cccc(-c5nc6cc(CN7CC[C@@H](C(=O)O)C7)cc(C#N)c6o5)c4C)cccc32)ccc1CN1CC[C@@H](O)C1` [Compound 6] as the compound, how does the pIC50 read?
Answer: ≥ 7.00

Question: With `COc1nc(O[C@@H]2CCc3c(-c4cccc(-c5nc6cc(CN7CC[C@@H](O)C7)cc(C#N)c6o5)c4C)cccc32)cnc1CN1CC[C@@H](C(=O)O)C1` [Compound 9] as the compound, how does the pIC50 read?
Answer: ≥ 7.00

Question: `COc1nc(O[C@@H]2CCc3c(-c4cccc(Nc5nccc6cc(CN7CC[C@@H](O)C7)cnc56)c4C)cccc32)cnc1CN1CC[C@@H](C(=O)O)C1` [Compound 5] was tested. Which pIC50 did it give?
Answer: ≥ 7.00

Question: With `COc1nc(O[C@@H]2CCc3c(-c4cccc(Nc5nccc6cc(CN7CC[C@@H](O)C7)cnc56)c4C)cccc32)ccc1CN1CC[C@@H](C(=O)O)C1` [Compound 3] as the compound, how does the pIC50 read?
Answer: ≥ 7.00

Question: `COc1nc(O[C@@H]2CCc3c(-c4cccc(-c5nc6cc(CN7CC[C@@H](C(=O)O)C7)cc(C#N)c6o5)c4C)cccc32)cnc1CN1CC[C@@H](O)C1` [Compound 8] was tested. Which pIC50 did it give?
Answer: ≥ 7.00

Question: `COc1nc(O[C@@H]2CCc3c(-c4cccc(Nc5nccc6cc(CN7CC[C@@H](C(=O)O)C7)cnc56)c4Cl)cccc32)cnc1CN1CC[C@@H](O)C1` [Compound 12] was tested. Which pIC50 did it give?
Answer: ≥ 7.00

Question: How did the pIC50 turn out when `COc1nc(O[C@@H]2CCc3c(-c4cccc(Nc5nccc6cc(CN7CC[C@H](O)C7)cnc56)c4Cl)cccc32)cnc1CN1CC[C@@H](C(=O)O)C1` [Compound 13] was run?
Answer: ≥ 7.00

Question: With `COc1nc(O[C@@H]2CCc3c(-c4cccc(Nc5nccc6cc(CN7CC[C@@H](C(=O)O)C7)cnc56)c4Cl)cccc32)ccc1CN1CC[C@@H](O)C1` [Compound 10] as the compound, how does the pIC50 read?
Answer: ≥ 7.00
